Marks after values point to notes of the source that are not given here.

The nature of data set [1]: PELF gentamicin concentrations after single IV or nebulized dose in foals. The protocol:
Eight healthy 5-7-week-old Quarter Horse foals were randomly assigned to one of 4 groups using a balanced Latin-square design. Foals were considered healthy on the basis of physical examinations, complete blood cell counts and plasma biochemical profiles. […] The liposome gentamicin formulation was nebulized using Nortev FLEXINEB. For each treatment, gentamicin was administered over a period of 15 minutes. There was a washout period of 7-14 days between each treatment.
For the BAL collection, foals were sedated with xylazine and butorphanol. Concentrations of gentamicin were measured in plasma and in bronchoalveolar cells using HPLC-MS.
Eight foals received a single IV or nebulized dose (6.6 mg/kg bwt) of FG^h or LG in a balanced Latin square design. Beginning at 5-7 weeks of age, every foal received each of the 4 possible drug-route combinations with a 14-day washout period between each administration. Intravenous FG and LG were diluted in 250 ml of sterile 0.9% saline and administered via a jugular catheter as a constant rate infusion over 15 min. Nebulized FG and LG were administered by inhalation over 15 minutes via a commercial equine nebulizer. To ensure equivalent rate of delivery, FG was diluted to the same volume as LG with sterile 0.9% saline. Particle size of nebulized LG was verified using laser diffraction. Blood samples for plasma separation were obtained from a catheter placed in the contralateral jugular vein prior to each drug administration, and at 5, 10, 20, 30, 45 minutes and 1, 1.5, 2, 3, 4, 6, 8, 12, 16, 24 and 48 hours after the end of the 15 minute IV infusion or nebulization period. Bronchoalveolar lavage (BAL) fluid was collected at 2, 4, 8, 24, and 48 hours. Foals were sedated with xylazine hydrochloride (0.5 mg/kg bwt IV) and butorphanol tartrate (0.07 mg/kg bwt IV) prior to collection of BAL fluid. Prior to analysis for gentamicin concentration, blood samples were centrifuged at 400×g for 10 minutes and the resultant plasma frozen at −80° C. until assayed.
(§1) A 10 mm diameter, 2.4 m BAL catheter^k was passed via nasal approach until wedged into a bronchus. The lavage solution consisted of 4 aliquots of 60 ml 0.9% saline solution infused and instantly aspirated. Immediately upon collection, the total volume of BAL fluid recovered was measured and a 3 ml aliquot saved in an EDTA tube from which total nucleated cell count was determined by use of a cell counter.^1 BAL fluid was immediately centrifuged at 400×g for 10 min. The BAL cells in the resultant pellet were washed, re-suspended in 500 μl of acetonitrile: 0.2% formic acid (1:1, v/v), vortexed, and frozen at −80° C. until assayed. Supernatant BAL fluid was also frozen at −80° C. until assayed. Before assaying, the cell pellet samples were thawed, vortexed vigorously and sonicated for 10 minutes to ensure complete cell lysis. The resulting suspension was centrifuged at 500×g for 10 minutes and the supernatant fluid was used to determine the intracellular concentrations of gentamicin.
(§2) Briefly, gentamicin was extracted from plasma (250 μl) and urine (500 μl) using protein precipitation with an equal volume of ice-cold 90:10 acetonitrile: 0.2% formic acid (v/v). Extracted samples were centrifuged (2° C. at 10,000×g for 10 min) twice. Two-hundred microliters of the supernatants were transferred to polypropylene inserts for injection. The supernatant derived from the lyzed BAL cell pellet was transferred to polypropylene inserts for direct injection without further processing. […] An aliquot of the resultant supernatant was then mixed with an equal volume of ice-cold acetonitrile, centrifuged (2° C. at 10,000×g for 10 minutes) and 200 μl was transferred to polypropylene inserts for injection. Calibration standards were prepared in drug-free foal plasma, BAL fluid or urine and then extracted as described above so that standard curves specific to each biologic matrix could be constructed.

Data set [2] is described as follows: Repeated dose IV LG or FG: gentamicin in plasma, BAL cells and urine of foals. How it is done:
Each dose was diluted in 250 ml of sterile 0.9% saline and administered over 15 minutes via an indwelling 14 G catheter placed in a jugular vein. Blood samples for plasma separation and measurement of gentamicin concentrations were obtained on day 1 and on day 7 at the times listed for study 1. Bronchoalveolar lavage fluid was collected 2, 6 and 24 hours after the end of infusion on day 7. Urine was collected the day prior to the first drug dose (day 0) and again 2 hours after the end of the infusion on days 3 and 7. Foals were sedated with xylazine hydrochloride (1.1 mg/kg bwt IV) and anesthetized with ketamine (2.2 mg/kg bwt IV) to allow passage of a urinary catheter using aseptic techniques. Urinalysis was performed and urine and concurrently obtained plasma samples were submitted for measurement of creatinine, γ-glutamyltransferase (GGT), protein, calcium, chloride, magnesium, sodium, and potassium concentrations. Fractional excretion of electrolytes, urinary GGT to creatinine ratio, and urinary protein to creatinine ratios were calculated. Prior to analysis for gentamicin concentration by LC-MS, urine and plasma samples were centrifuged at 400×g for 10 minutes and the supernatant was frozen at −80° C. until assayed.
as §1
as §2, with “constructed. […] Analyte separation and LC-MS/MS measurement of gentamicin were performed exactly as described previously (Burton et al. (2013) Equine Vet J. 45, 507-511) except that BAL fluid samples, were introduced in the MS with a flow rate of 0.18 ml/minutes and a total run time of 8 minutes due to relatively low gentamicin concentration in those samples.” for “constructed.”
Estimation of the volume of PELF was determined by urea dilution method (Rennardet al. (1986) J. Appl. Physiol 60, 532-538).

The mark [3] stands for this setting: 6.6 mg/kg IV q 24 h, 7 doses, day 7.

As to gentamicin sulfate [Free Gentamicin], in data set [1] (IV), the AUC0-t is 44.66 ± 20.96^a μg · h/ml; the C24 h amounted to 840 ± 640 ng/mL; the “Tmax (median and range)” value is recorded as 6 (4-8) h. Moreover, in data set [1] (IV, Table 2), the AUC0-24 came to 44800 ± 21000 ng·h/mL, the C48 h was 840 ± 640 ng/mL and the Cmax stood at 4.6 ± 1.9 µg/mL. Besides, the Cmax in data set [1] (IV, Table 5) is on record as 4.64 ± 1.99^a μg/ml. Further, in data set [1] (N (nebulized), Table 2), the AUC0-24 was 41000 ± 15800 ng·h/mL, the C48 h was determined as 350 ± 340 ng/mL and the Cmax was 13.0 ± 6.7 µg/mL. Besides, in data set [1] (Neb), the AUC0-t is 40.97 ± 15.81^a μg · h/ml; the C24 h was 350 ± 340 ng/mL; the “Tmax (median and range)” value is reported as 2 (2-2) h. The highest concentration (Cmax) in data set [1] (Neb, Table 5) was 13.02 ± 6.70^c μg/ml. Further, in data set [2] (setting [3]), the “AUC0-t in BAL cells” value amounted to 104800 ± 35100 ng·h/mL, the “Cmax in BAL cells” value amounted to 6700 ± 1900 ng/mL and the “Concentration in BAL cells at 24 hours” value came to 3500 ± 1800 ng/mL. For the same substance, in data set [2] (6.6 mg/kg IV q 24 h, 7 doses, day 7, range 2-24 hours), the “Tmax in BAL cells (median)” value amounted to 6 h. In addition, the Urine gentamicin in data set [2] (Day 3) turned out to be 94.8 ± 47.5 µg/mL. The Urine gentamicin in data set [2] (Day 7) was 87.5 ± 5 µg/mL. Further, the “accumulation in plasma over 1 week of daily administration” value in data set [2] (day 1 vs day 7 plasma pharmacokinetic variables) was “no accumulation”.

What is called Cmax is the maximum level reached in the sampled fluid or tissue.

(Values after patent US20160193148A1, “LIPOSOMAL FORMULATIONS FOR THE TREATMENT OF BACTERIAL INFECTIONS” (UNIVERSITY OF GEORGIA RESEARCH FOUNDATION, INC., priority 2013, published 2016).)
